Measured values reported in patent US20050180944A1, “In situ remediation of waste in farm animal bedding substrates” (priority 2004, published 2005).

Legend:
[1] = system: pig waste; assay: Seven-day test: bioremediation/degradation of pig waste suspended in water with fatty acid additives; settings: 0.1 g fatty acid (0.5 g coated nutrient) per bottle of aqueous pig waste mixture, 2000 ppm ammonium hydroxide, 25 degrees Celsius
Description: A test was performed to determine the relative performance of various additives on the bioremediation or degradation of wastes suspended in water. Measurements of the “biological oxygen demand” (BOD) and “total suspended solids” (TSS) were taken as representative of the progress of the microbial growth and effectiveness of the degradation brought about by the microbes. Approximately five pounds of pig waste was collected from a feedlot and diluted in five gallons of deionized water. The mixture was allowed to sit for 24 hours to insure that the waste formed a uniform mixture. Five hundred milliliters (500 ml) of the aqueous waste mixture was added to each of 13 two-liter glass bottles that were closed with Teflon lined caps. Ammonium hydroxide was added to each container for a final concentration of 2000 ppm. The samples were diluted with water 2:1 and filtered to remove large particulate matter. Various fatty acids and combinations of fatty acids were added to each bottle and the bottles were placed in a tumbler at 25 degrees Celsius. Seven of the bottles were used in a seven-day test and six of the bottles were used in a twelve-day test. Standard EPA test methods were used for all test measurements.

[2] = system: pig waste; assay: BOD and TSS of pig waste samples treated with fatty acids and combinations (test duration not given); parameters: BOD reduction / TSS reduction: concentration or dose not given beside the values; settings: treated pig waste sample
Description: A test was performed to determine the relative performance of various additives on the bioremediation or degradation of wastes suspended in water. Measurements of the “biological oxygen demand” (BOD) and “total suspended solids” (TSS) were taken as representative of the progress of the microbial growth and effectiveness of the degradation brought about by the microbes.
Approximately five pounds of pig waste was collected from a feedlot and diluted in five gallons of deionized water. The mixture was allowed to sit for 24 hours to insure that the waste formed a uniform mixture. Five hundred milliliters (500 ml) of the aqueous waste mixture was added to each of 13 two-liter glass bottles that were closed with Teflon lined caps. Ammonium hydroxide was added to each container for a final concentration of 2000 ppm.
The samples were diluted with water 2:1 and filtered to remove large particulate matter. Various fatty acids and combinations of fatty acids were added to each bottle and the bottles were placed in a tumbler at 25 degrees Celsius. Seven of the bottles were used in a seven-day test and six of the bottles were used in a twelve-day test. Standard EPA test methods were used for all test measurements.
BOD (biological oxygen demand) and TSS (total suspended solids) were measured on each sample.

SMILES: CCCCCCCCCCCC(=O)O [Lauric]
- TSS (total suspended solids) [1]: 16,040 ppm

SMILES: CCCCC/C=C\C/C=C\CCCCCCCC(=O)O [Linoleic, linoleic acid]
- TSS (total suspended solids) [1]: 15,780 ppm
- BOD levels [2]: 6102 ppm
- BOD reduction [2]: 12.2%
- TSS levels [2]: 439 ppm
- TSS reduction [2]: 13.3%

SMILES: CCCCCCCC/C=C\CCCCCCCC(=O)O [Oleic, oleic acid]
- TSS (total suspended solids) [1]: 15,600 ppm
- BOD levels [2]: 6050 ppm
- BOD reduction [2]: 13.0%
- TSS levels [2]: 407 ppm
- TSS reduction [2]: 19.6%

SMILES: CCCCCCCCCCCCCCCCCC(=O)O [Strearic, stearic acid]
- TSS (total suspended solids) [1]: 16,080 ppm
- BOD levels [2]: 6660 ppm
- BOD reduction [2]: 9.5%
- TSS levels [2]: 455 ppm
- TSS reduction [2]: 10.0%
